Each substance was assayed on ovulation in female rats (assay: Anti-ovulatory activity (AOA) in vivo assay in rats). Conditions: dose 1 μg per rat.
Design: species or system rat
Experimental: As used herein, “LHRH antagonist peptide” is intended to include peptides and peptide analogs which inhibit LHRH activity (i.e., has “LHRH antagonist activity”) in vivo or in vitro. Candidate LHRH antagonist peptides can be assayed, for example, in the animal model described in Corbin and Beattie, Endocrine Res. Commun. 2:1 (1975) (and see infra). In this assay, the LHRH antagonistic activity of a candidate compound is assayed by measuring the antiovulatory activity (AOA) of the compound in rats.
Anti-ovulatory activity (AOA) was measured by an in vivo assay in rats, as described in Corbin and Beattie, Endocrine Res. Commun. 2:1 (1975). In brief, female rats are injected with a candidate LHRH antagonist on the day of proestrus; in general, the candidate LHRH antagonist was dissolved in 0.1% DMSO. The ability of the candidate peptide to inhibit ovulation is measured by determining the number of rats which ovulate. A candidate peptide is considered to have LHRH antagonist qualities if it inhibits ovulation in at least 50% of the treated rats at a dose of 5 μg per rat. Preferred LHRH antagonists inhibit ovulation in at least 50% of rats at a dose of 2 μg per rat, more preferably at a dose of […], and still more preferably at a dose of 0.5 μg per rat.

Substance	AO activity (AOA): rats which ovulate / rats treated
Ac-D-Nal^1,4-Cl-D-Phe^2,D-Pal^3,D-Lys(COCH2S^+Me2)^6, D-Ala^10-LHRH.2TFA [Compound 4014]	0/8@1.00
Ac-D-Nal^1, 4-Cl-D-Phe^2, D-Pal(N—O)^3, D-Pal(iPr)^6, Lys(iPr)^8, D-Ala^10-LHRH.2TFA [Compound 3882]	6/8@1.0
Ac-D-Nal^1, 4-Cl-D-Phe^2, D-Pal^3, Asn^4, Tyr^5, D-Cit^6, Lys(iPr)^8, D-Ala^10-LHRH.TFA [Compound 3434]	4/8@1 μg
Ac-D-Nal^1, 4-Cl-D-Phe^2, D-Pal^3, Asn^5, D-Pal(iPr)^6, Lys(iPr)^8, D-Ala^10-LHRH.2TFA [Compound 3744]	7/8@1.0
Ac-D-Nal^1, 4-Cl-D-Phe^2, D-Pal^3, Cit^5, D-Cit^6, Lys(iPr)^8, D-Ala^10-LHRH.TFA [Compound 3431]	6/8@1 μg
Ac-D-Nal^1, 4-Cl-D-Phe^2, D-Pal^3, Cit^5, D-Pal(iPr)^6, Lys(iPr)^8, D-Ala^10-LHRH.TFA [Compound 3435]	7/8@1 μg
Ac-D-Nal^1, 4-Cl-D-Phe^2, D-Pal^3, Cit^5, D-Pal^6, Lys(iPr)^8, D-Ala^10-LHRH.TFA [Compound 3433]	5/8@1 μg
Ac-D-Nal^1, 4-Cl-D-Phe^2, D-Pal^3, D-Arg^6, Dap(COCH2S^+Me2)^8, D-Ala^10-LHRH.2TFA [Compound 4023]	0/8@1.00
Ac-D-Nal^1, 4-Cl-D-Phe^2, D-Pal^3, D-Arg^6, Lys(COCH2S^+Me2)^8, D-Ala^10-LHRH.2TFA [Compound 4015]	1/8@1.00
Ac-D-Nal^1, 4-Cl-D-Phe^2, D-Pal^3, D-Arg^6, Met^8, D-Ala^10-LHRH.TFA [Compound 3995]	5/8@1.00
Ac-D-Nal^1, 4-Cl-D-Phe^2, D-Pal^3, D-Arg^6, Orn(COCH2SMe)^8, D-Ala^10-LHRH.2TFA [Compound 3994]	6/8@1.00
Ac-D-Nal^1, 4-Cl-D-Phe^2, D-Pal^3, D-Dap(COCH2S^+Me2)^6, D-Ala^10-LHRH.2TFA [Compound 3969]	3/8@1.00
Ac-D-Nal^1, 4-Cl-D-Phe^2, D-Pal^3, D-Gln(iPr)^6, Lys(iPr)^8, D-Ala^10-LHRH.2TFA [Compound 3545]	7/8@1 μg
Ac-D-Nal^1, 4-Cl-D-Phe^2, D-Pal^3, D-Glu(Amp)^6, Lys(iPr)^8, D-Ala^10-LHRH.TFA [Compound 3511]	7/8@1 μg
Ac-D-Nal^1, 4-Cl-D-Phe^2, D-Pal^3, D-Glu(CSer)^6, Lys(iPr)^8, D-Ala^10-LHRH.2TFA [Compound 3550]	6/8@1 μg
Ac-D-Nal^1, 4-Cl-D-Phe^2, D-Pal^3, D-Glu(Dea)^6, Lys(iPr)^8, D-Ala^10-LHRH.TFA [Compound 3543]	6/8@1 μg
Ac-D-Nal^1, 4-Cl-D-Phe^2, D-Pal^3, D-Glu(Mop)^6, Lys(iPr)^8, D-Ala^10-LHRH.2TFA [Compound 3549]	6/8@1 μg
Ac-D-Nal^1, 4-Cl-D-Phe^2, D-Pal^3, D-Glu^6, Lys(iPr)^8, D-Ala^10-LHRH.TFA [Compound 3552]	8/8@1 μg
Ac-D-Nal^1, 4-Cl-D-Phe^2, D-Pal^3, D-HomoArg(NO2)^6, Lys(iPr)^8, D-Ala^10-LHRH.TFA [Compound 3436]	7/8@1 μg
Ac-D-Nal^1, 4-Cl-D-Phe^2, D-Pal^3, D-Lys(2-ClNic)^6, Lys(iPr)^8, D-Ala^10-LHRH.TFA [Compound 3441]	8/8@1 μg
Ac-D-Nal^1, 4-Cl-D-Phe^2, D-Pal^3, D-Lys(2-pyrimidylthio)acetic)^6, Lys(iPr)^8, D-Ala^10-LHRH.TFA [Compound 3960]	5/8@1.00

Substance	AO activity (AOA): rats which ovulate / rats treated
Ac-D-Nal^1, 4-Cl-D-Phe^2, D-Pal^3, D-Lys(3-pyridineacetic)^6, Lys(iPr)^8, D-Ala^10-LHRH.TFA [Compound 3440]	2/8@1 μg
Ac-D-Nal^1, 4-Cl-D-Phe^2, D-Pal^3, D-Lys(3-Δ-Pro)^6, Lys(iPr)^8, D-Ala^10-LHRH-TFA [Compound 3721]	4/8@1.0
Ac-D-Nal^1, 4-Cl-D-Phe^2, D-Pal^3, D-Lys(AcGly)^6, Lys(iPr)^8, D-Ala^10-LHRH.TFA [Compound 3759]	5/8@1.0
Ac-D-Nal^1, 4-Cl-D-Phe^2, D-Pal^3, D-Lys(Ala)^6, Lys(iPr)^8, D-Ala^10-LHRH.TFA [Compound 3771]	7/8@1.0
Ac-D-Nal^1, 4-Cl-D-Phe^2, D-Pal^3, D-Lys(Dodac)^6, Lys(iPr)^8, D-Ala^10-LHRH.TFA [Compound 3803]	2/8@1.0
Ac-D-Nal^1, 4-Cl-D-Phe^2, D-Pal^3, D-Lys(Glycolyl)^6, Lys(iPr)^8, D-Ala^10-LHRH.TFA [Compound 3437]	7/8@1 μg
Ac-D-Nal^1, 4-Cl-D-Phe^2, D-Pal^3, D-Lys(Gulonyl)^6, Lys(iPr)^8, D-Ala^10-LHRH.TFA [Compound 3506]	4/8@1 μg
Ac-D-Nal^1, 4-Cl-D-Phe^2, D-Pal^3, D-Lys(Hippic)^6, Lys(iPr)^8, D-Ala^10-LHRH.TFA [Compound 3758]	5/8@1.0
Ac-D-Nal^1, 4-Cl-D-Phe^2, D-Pal^3, D-Lys(HomoPro)^6, Lys(iPr)^8, D-Ala^10-LHRH.TFA [Compound 3439]	2/8@1 μg
Ac-D-Nal^1, 4-Cl-D-Phe^2, D-Pal^3, D-Lys(ONic)^6, Lys(iPr)^8, D-Ala^10-LHRH.TFA [Compound 3507]	1/8@μg
Ac-D-Nal^1, 4-Cl-D-Phe^2, D-Pal^3, D-Lys(Orotic)^6, Lys(iPr)^8, D-Ala^10-LHRH.TFA [Compound 3762]	6/8@1.0
Ac-D-Nal^1, 4-Cl-D-Phe^2, D-Pal^3, D-Lys(iPr)^5, D-Lys(TFAc)^6, Lys(iPr)^8, D-Ala^10-LHRH.2TFA [Compound 3753]	7/8@1.0
Ac-D-Nal^1, 4-Cl-D-Phe^2, D-Pal^3, D-Lys(iPrNic)^5, D-Lys(iPrNic)^6, Lys(iPr)^8, D-Ala^10-LHRH.TFA [Compound 3553]	8/8@1 μg
Ac-D-Nal^1, 4-Cl-D-Phe^2, D-Pal^3, D-Lys^6, Lys(iPr)^8, D-Ala^10-LHRH.TFA [Compound 3505]	5/8@1 μg
Ac-D-Nal^1, 4-Cl-D-Phe^2, D-Pal^3, D-Met(S^+CH2COPh)^6, D-Ala^10-LHRH.2TFA [Compound 3968]	4/8@1.00
Ac-D-Nal^1, 4-Cl-D-Phe^2, D-Pal^3, D-Met(S^+Me)^6, Met(S^+Me)^8, D-Ala^10-LHRH.2TFA [Compound 4016]	6/8@1.00
Ac-D-Nal^1, 4-Cl-D-Phe^2, D-Pal^3, D-Orn(COCH2S^+Me2)^6, D-Ala^10-LHRH.2TFA [Compound 4013]	0/8@1.00
Ac-D-Nal^1, 4-Cl-D-Phe^2, D-Pal^3, D-Pal(1-Bu)^6, Lys(iPr)^8, D-Ala^10-LHRH.TFA [Compound 3428]	1/8@1 μg
Ac-D-Nal^1, 4-Cl-D-Phe^2, D-Pal^3, D-Pal(CH2COOH)^6, Lys(iPr)^8, D-Ala^10-LHRH.TFA [Compound 3770]	6/8@1.0
Ac-D-Nal^1, 4-Cl-D-Phe^2, D-Pal^3, D-Pal(N—O)^6, Lys(iPr)^8, D-Ala^10-LHRH.TFA [Compound 3786]	4/8@1.0

Same assay, conditions: dose 2 μg per rat

Substance	AO activity (AOA): rats which ovulate / rats treated
Ac-D-Nal^1, 4-Cl-D-Phe^2, D-Pal^3, D-Glu(PEG)^6, Lys(iPr)^8, D-Ala^10-LHRH.2TFA [Compound 3542]	7/8@2 μg

Same assay, conditions: dose 5 μg per rat

Substance	AO activity (AOA): rats which ovulate / rats treated
Ac-D-(or L)-9-anthryl-Ala^1, 4-Cl-D-Phe^2, D-Pal^3, D-Cit^6-Lys(iPr)^8, D-Ala^10-LHRH.TFA [Compound 3366]	6/8@5 μg
Ac-D-Nal-4-Cl-D-Phe^2, D-Pal^3, D-Lys(Ac-D-Nal^1 , 4-Cl-D-Phe^2, D-Pal^3, Ser)^6, Lys(iPr)^8, D-Ala^10-LHRH.TFA [Compound 3722]	8/8@5.0
Ac-D-Nal^1, 4-Cl-D-Phe^2, D-Pal^3, Arg^5, D-His^6, Trp^7, Orn^8, D-Ala^10-LHRH.TFA [Compound 3854]	6/8@5.0
Ac-D-Nal^1, 4-Cl-D-Phe^2, D-Pal^3, His^5, D-Arg^6, Trp^7, Orn^8, D-Ala^10-LHRH.TFA [Compound 3853]	0/8@5.0

Same assay, conditions: rat, in vivo

Substance	AO activity (AOA), in words
Ac-D-Nal^1, 4-Cl-D-Phe^2, D-Pal^3, D-Arg^6, Dap(COCH2S^+Me2)^8, D-Ala^10-LHRH.2TFA [Compound 4023]	effective
Ac-D-Nal^1, 4-Cl-D-Phe^2, D-Pal^3, D-Lys(COCH2CH2N(Et)2)^6, D-Ala^10-LHRH.2TFA [Compound 3949]	low activity
Ac-D-Nal^1, 4-Cl-D-Phe^2, D-Pal^3, D-Lys(ONic)^6, Lys(iPr)^8, D-Ala^10-LHRH.TFA [Compound 3507]	high AOA

Reference: patent US7071165B2, “LHRH antagonist peptides” (Indiana University Research and Technology Corporation, priority 1995, dated 2006)
